From patent US6664231B1, “Anti-fungal peptides” (priority 1993, dated 2003)

Key:
[1] = tested on: C. albicans designated CA-1, Strain SLU-1; details: designated CA-1, Strain SLU-1, 18 h
Method: In each broth assay screening procedure, a colony of C. albicans designated CA-1, Strain SLU-1 that was received from the laboratories of G. Matuschak and A. Lechner, St. Louis University Hospital, St. Louis, Mo., where the strain was maintained, was inoculated into a tube containing 5 mL Sabouraud Dextrose broth (2% dextrose, 1% neopeptone) and incubated overnight at 37° C. with shaking. The overnight culture was diluted 1:50 into 5 mL of fresh broth and incubated for 3 hours at 37° C. Organisms were pelleted by centrifugation in a Beckman J-6M centrifuge for 5 minutes at 3000 rpm (1500×g) and the pellets were resuspended in 5 mL phosphate buffered saline (PBS) and the optical density at 570 nm was determined. On the basis of the determination that one OD unit equals 3×10^7 colony forming units/mL, yeast cells were diluted to 2×10^6 cells/mL in Sabouraud Dextrose broth.
Domain III peptides derived from or based on BPI to be screened were originally constituted in Dulbecco's-PBS, were diluted to 100 μg/mL in broth and were serially diluted 2-fold into wells of a 96 well sterile, flat bottom, non-pyrogenic tissue culture plate (Costar, Cambridge, Mass.). All assays were performed in triplicate. 2×10^5 organisms were added at 100 μl per well; final volume was 200 μL/well; the plate was incubated on a shaker at 37° C. for 18 hours; and the optical densities for each well were read at 590 nm. […] The broth assay data may be set out in terms of minimum inhibitory concentration (MIC), i.e. the lowest concentration required to reduce the optical density at 590 nm to below 0.1.

[2] = tested on: polyene-resistant (ATCC 38247), 5-fluorocytosine-resistant (ATCC 44373), azole-resistant (ATCC 62342), ketoconazole-resistant (ATCC 64124) C. albicans; assay: Fungicidal activity on commercially-available drug-resistant Candida strains; type: cell-based, Candida albicans; details: ATCC 38247, 44373, 62342, 64124
Method: Further experiments were performed to determine the anti-fungal activity of Domain III derived peptides on commercially-available strains of Candida considered resistant to other anti-fungal agents: polyene-resistant C. albicans (ATCC Accession No. 38247), 5-fluorocytosine-resistant C. albicans (ATCC No. 44373), azole-resistant C. albicans (ATCC No. 62342), and ketoconazole-resistant C. albicans (ATCC No. 64124).

[3] = tested on: Crytococcus Neoformans 13690; type: cell-based, Cryptococcus neoformans
Method: (§1) In additional experiments, a fluorescence-activated cell sorter (FACS) based assay was developed to test the fungicidal activity of the peptides. […] Difco) agar. Several colonies were picked from the agar plate and inoculated into 5 mL of Sabouraud's Dextrose media in a sterile 10 mL polypropylene tube. The fungal cultures were incubated for about 18 hours at 30° C. […] The culture were centrifuged at 3000 rpm for 5 minutes (Sorvall RT 6000B). After centrifugation, the supernatant was decanted leaving the fungal pellets in the centrifuge tubes. The pellets were resuspended in 15 mL of SDB. Both suspensions were combined into one tube and mixed to generate a stock culture. […] After determining the concentration of the stock, appropriate dilutions were made with Sabouraud's Dextrose media to obtain 100 mL of 1×10^6 cell/mL. […] After the 1 hour incubation, all the tubes were centrifuged at 3000 rpm for 5 minutes. […] Louis, Mo.) in Dulbecco's PBS (DPBS, GIBCO, Grand Island, N.Y.) except the autofluorescence control, which was resuspended in DPBS alone. […] The settings were adjusted appropriately to the following approximate parameters: Cells were analyzed (10,000 cells/tube) and their respective fluorescence determined. […] The population of dead (i.e., propidium iodide stained) fungal cells was determined by a fluorescence threshold between the negative control and positive control.

[4] = tested on: Candida lusitaniae; type: cell-based
Method: as §1, with “alone. The tubes were mixed and incubated in the dark at room temperature for at least 20 minutes.” for “alone.”

[5] = tested on: Candida glabrata; type: cell-based
Method: as §1, with “alone. The tubes were mixed and incubated in the dark at room temperature for at least 20 minutes.” for “alone.”

[6] = tested on: Candida parasilosis; type: cell-based
Method: as §1, with “alone. The tubes were mixed and incubated in the dark at room temperature for at least 20 minutes.” for “alone.”

[7] = tested on: endotoxin (E. coli O111:B4); assay: Mouse experimental endotoxemia model; type: in vivo; details: endotoxin 20 mg/kg, 7 days
Method: Domain III derived peptides are also tested for LPS neutralizing efficacy in an in vivo mouse experimental endotoxemia model. […] This was followed by a second intravenous injection of the peptide to be tested. Injections of saline were used in negative control mice. […] The efficacy of the peptides was measured by a decrease in endotoxemia-associated mortality in peptide-injected mice as compared with control mice. […] No animals survived in the saline control group.

[8] = type: physicochemical
Method: XMP.284 was soluble in water and unbuffered saline. XMP.284 was also soluble in 10 mM sodium phosphate, 150 mM sodium chloride pH 7. […] There was very little product loss, as measured by absorbance at 280 nm, in 0.15 M saline buffered with 10 mM acetate at pH 4, 5 or 6. […] Presently preferred is a formulation that includes 10 mM sodium acetate, 150 mM sodium chloride, pH 5.

Substance	minimum inhibitory concentration (MIC), lowest concentration required to reduce the optical density at 590 nm to below 0.1 [1]	Fungicidal activity on resistant strains [2]	Activity of Peptides on Crytococcus Neoformans 13690, IC50 [3]	Candida lusitaniae IC50 [4]	Candida glabrata IC50 [5]	Candida parasilosis IC50 [6]	protection from endotoxemia-associated mortality ([7]; 0.5 mg/kg dose i.v., FIG. 9)	animals protected ([7]; 1 mg/kg dose i.v.)	solubility in the phosphate buffer on heating [8]	solubility in water and unbuffered saline [8]
H-KSKVGWLIQLFHKK-NH2 [XMP.13]	12.5 µg/mL	not reduced								
H-SKVKWLIQLFHKK-NH2 [XMP.284]			0.11 µg/mL	1.20 µg/mL	6.27 µg/mL	1.82 µg/mL	significant protection	14 of 15	remained soluble	soluble
